# Tests used:
# [1] = Plasma protein binding (ultrafiltration), mouse; assay type: in vitro ADME; details: male, C57/BL10, 50 to 50 000 ng/mL, mean ± SD, n = 3, read-out: percentage protein binding (converted)
# Experimental: [^14C]‐Ataluren, at 50, 500, 5000, and 50 000 ng/mL or 0.175, 1.75, 17.5, and 175 µM, in male mouse, rat, dog, monkey, and human plasma, was incubated (n = 3) at 37°C for approximately 15 minutes, transferred into Centrifree® Micropartition Units (30 000 Da molecular weight cutoff, 1 mL capacity; Amicon Inc), and centrifuged at 37°C and 2000 g for approximately 10 minutes so that the amount of the sample filtered was approximately ≤ 20% of the total volume. After centrifugation, the entire ultrafiltrate was weighed and analyzed for radioactivity using liquid scintillation counting. The percent bound = (1‐Cu/Cm)×100, where Cu is the concentration of radioactivity in the ultrafiltrate and Cm is the concentration of radioactivity in the plasma before centrifugation.
# [2] = Glucuronidation in pooled human kidney microsomes; assay type: in vitro ADME; details: kidney microsomes 1 mg protein/mL, 10 μmol/L, 60 minutes, n = 1
# Experimental: Ataluren at 10 μmol/L, was incubated (n = 1) with pooled human intestinal, lung, and kidney microsomes (1 mg protein/mL, preactivated with alamethicin) to evaluate if ataluren‐O‐1β‐acyl glucuronide will be formed in these extrahepatic tissues. Incubation mixtures and procedures were essentially the same as the above. The supernatant fractions were analyzed by LC‐MS/MS to quantify the formation of ataluren‐O‐1β‐acyl glucuronide and the loss of ataluren. Detailed LC‐MS/MS conditions are summarized in LC‐MS/MS Analysis section. […] The ataluren acyl glucuronide formation rate after 60 minutes incubation was calculated using the amount of metabolite formed (pmol) divided by the protein amount in the incubation sample ([…]) and the incubation time (60 minutes).
# Quantification of ataluren loss and ataluren‐O‐1β‐acyl glucuronide formation was carried out with an LC‐MS/MS system, which consisted of two Shimadzu LC‐10ADvp pumps, a SPD10‐AVP UV/Vis detector, a Shimadzu SILHTA autosampler, a Shimadzu DGU‐14A degasser, and a Sciex API 4000 QTRAP mass spectrometer equipped with a Turbo Ionspray ionization source that operated in positive ionization mode. […] Ion transitions monitored were at m/z 285 → m/z 123 for ataluren, m/z 461 → m/z 285 for ataluren acyl glucuronide, and m/z 289 → m/z 127 for ataluren‐D4 (internal standard), respectively.
# CYP2D6 = molecular target: T1, CYP2D6 (Homo sapiens, UniProt P10635); test: CYP inhibition in pooled human liver microsomes: CYP2D6; assay type: in vitro ADME; details: CYP2D6, HLM, estimated, concentrations up to 400 μmol/L
# T1 construct: tissue XenoTech LLC, Celsis-In Vitro Technologies, or Tissue Transformation Technologies; host or cells: pooled human liver microsomes
# Experimental: The final concentration of each probe substrate was near the experimentally determined Km value for the indicated enzyme. Ataluren or prototypical CYP inhibitors (positive controls) was incubated (n = 3) with probe substrates and HLM in 100 mmol/L phosphate buffer (pH 7.4) in a total volume of approximately 0.25 mL, and the reactions were initiated by the addition of 1 mmol/L NADPH at 37°C. The reactions were carried out using previously established conditions to ensure linearity with respect to protein concentration and incubation time (Table S1). Incubations were stopped with the addition of ice‐cold acetonitrile. Metabolite formation in incubations with test compound and control inhibitors was assessed with LC‐MS/MS methods for each of the reaction products as described in Table S2. […] After 7 minutes incubation at 37°C, the reaction was stopped by the addition of ice‐cold acetonitrile, followed by membrane plate filtration. The filtrates were used for LC‐MS/MS analysis. […] IC50 values were determined by nonlinear regression with GraphPad Prism 5 using the following four‐parameter sigmoidal‐logistic IC50 equation: Fit=background+range-background/[1+I/IC50^slope]
# Where, I is the inhibitor concentration, and background was set to 0 and range to 100, as percent of control values are utilized. K i was determined by nonlinear regression with GraphPad Prism 5 using best fit model.
# CYP2C8 = test: CYP induction in primary human hepatocytes: CYP2C8; assay type: in vitro ADME; details: male, 48 h
# Experimental: (§1) Human hepatocytes isolated from three Caucasian males were transferred to 48‐well collagen‐coated plates at 0.14 × 10^6 cells/well in planting media for attachment. After attachment, planting media was replaced with sandwich media and the cells were incubated until clusters were established. […] The incubation solutions were aspirated and replaced with freshly prepared incubation solutions containing ataluren for an additional 24 hours. […] The incubation solutions were then aspirated and 150 µL of K‐H buffer containing CYP substrates were added. […] Metabolite formation in incubations with test compounds and control inhibitors was assessed with validated LC‐MS/MS methods for each of the reaction products as described in Table S2. Enzymatic activity for each CYP was calculated using the absolute amount of metabolite formed (pmol) divided by hepatocytes in the incubation (million cells) and the incubation time (minute). The relative fold induction in enzymatic activity was calculated by comparing the rate of metabolite formation for treatment groups to that of the solvent control group (reported as vehicle control%) or positive control group (reported as positive control%).
# CYP2C19 = test: CYP induction in primary human hepatocytes: CYP2C19; assay type: in vitro ADME; details: male, 48 h
# Experimental: as §1
# human hepatocytes = test: MTT cytotoxicity assay in human hepatocytes; assay type: cell-based; details: at the concentrations tested (4, 40, 400 µmol/L), data not shown
# [3] = Free fraction in human liver microsomes (internal data); assay type: in vitro ADME; details: between 1 and 200 µmol/L, 0.1 mg/mL protein concentration
# T1 sequence (P10635 whole entry): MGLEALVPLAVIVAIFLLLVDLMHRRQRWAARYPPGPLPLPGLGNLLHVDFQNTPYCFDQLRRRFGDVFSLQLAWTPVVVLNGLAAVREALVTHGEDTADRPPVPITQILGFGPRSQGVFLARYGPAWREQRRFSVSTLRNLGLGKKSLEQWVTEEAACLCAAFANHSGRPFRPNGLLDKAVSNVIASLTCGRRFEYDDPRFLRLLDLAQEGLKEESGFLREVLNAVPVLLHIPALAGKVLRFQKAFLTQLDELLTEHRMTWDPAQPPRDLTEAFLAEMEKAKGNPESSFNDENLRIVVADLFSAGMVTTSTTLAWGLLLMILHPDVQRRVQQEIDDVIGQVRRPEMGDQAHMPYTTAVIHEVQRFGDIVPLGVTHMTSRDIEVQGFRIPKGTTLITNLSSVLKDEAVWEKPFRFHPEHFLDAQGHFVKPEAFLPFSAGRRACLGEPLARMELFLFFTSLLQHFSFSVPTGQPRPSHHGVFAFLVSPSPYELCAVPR
compound,measurement,setting,value
"O=C(O)c1cccc(-c2noc(-c3ccccc3F)n2)c1 [ataluren, Ataluren]",fraction unbound at 15 min,[1],0.016
same,ataluren loss,[2],94.3%
same,IC50,CYP2D6,> 400 µM
same,"Vehicle control %, Mean",CYP2C8; 4 µM,93.0%
same,"Vehicle control %, Mean",CYP2C8; 400 µM,67.6%
same,"Vehicle control %, Mean",CYP2C19; 4 µM,112%
same,"Vehicle control %, Mean",CYP2C19; 400 µM,99.0%
same,cytotoxicity (MTT assay),human hepatocytes,not cytotoxic
same,Free fractions of ataluren in human liver microsomes,[3],close to unity

# — paper PMC7083565, “In vitro metabolism, reaction phenotyping, enzyme kinetics, CYP inhibition and induction potential of ataluren” (Pharmacology Research & Perspectives, 2020)
